From patent publication EP2229935A1, “Peptide derivatives or pharmaceutically acceptable salts thereof, method for producing the same, use of said derivatives and pharmaceutical composition” (Nebolsin, Vladimir Evgenievich, priority 1997, dated 1999)
Values joined by “and” are separate entries in the source; they are usually repeats but may differ in a detail not shown here. Equal entries are not always repeated. Marks after values point to notes of the source that are not given here.

What was measured:
mongrel male mice = experiment: Passive cutaneous anaphylaxis reaction; assay type: in vivo; conditions: PCA, oral 3 days
Procedure: Experiments were carried out on mongrel male mice with initial body mass 22-24 g. Each group included 10 animals. Sensibilization of animals was accomplished by intradermal injection of 20-30 µl of the serum of mice obtained from preliminaryly immunized animals comprising reagent antibodies against chicken ovalbumin (OVA). […] In 48 hours after sensibilzation an anaphylaxis-provoking OVA dose (1 mg and 0,2 ml Evans blue in 0.2 ml normal saline) were intravenously injected to mice. Passive cutaneous anaphylaxis reaction intensity (PCA) was determined in 30 minutes by the size (area) of a blue spot on the internal skin surface in the site of reagent anibodies' administration. Spot size was measured in two mutually perpendicular directions and the result was expressed in mm^2.

[1] = system: hepatic P-450 cytochrome system; experiment: Hexenal sleep duration in mice; assay type: in vivo
Method in brief: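 Male mice (several inbred/hybrid lines, 18-20 g, n=10) and mongrel male guinea pigs (250-300 g, n=24) given compounds orally in drinking water for three days at 50 and 500 µg/kg. Hexenal given 24 h after last dose ([…]); sleep duration recorded in minutes.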

hydroxyl radical = experiment: Hydroxyl radical formation in the Fenton reagent (chemiluminescence); assay type: biochemical
Procedure: Active oxygen forms (AOF) of different nature were generated in the following systems: • A. Hydroxyl radical - in the mixture of FeSO4 with H2O2 (the Fenton reagent) [Halliwell B. Superoxide-dependent formation of hydroxyl radicals in the presence of iron salts. […] Incubation medium comprised 5 mM KH2PO4 (pH 7.4); 5 mM FeSO4; 2 mM luminol. H2O2 at final concentration 5 mM was introduced into a cuvette through a dispencer following background luminescence recording of the reagents' mixture. 5 to 10 ml of the test compounds dissolved in water were at needed concentration introduced into a cuvette.
CL flash recording duration after mixing ingredients, depended on a particular process kinetics. For each system, CL light sum (mV) was determined in the control samples without preparations (I-) and in samples comprising respective concentrations of preparations (I+). To estimate CL inhibition (activation) degree, the I+/I- ratio (in relative units) was found in the studied systems.
When H2O2 was introduced into phosphate buffer comprising iron sulfate, CL flash occured which was caused by formation of predominantly hydroxyl radical in the reaction mixture.

[2] = system: Lewis pulmonary carcinoma (LLC); experiment: Lewis pulmonary carcinoma spontaneous metastasizing, oral administration; assay type: in vivo; conditions: BDF1 female mice with LLC, oral 24 days; for Mean number of metastases: day 25
Procedure: Each group included 15 animals. 0.3 ml of LLC tumor tissue suspension was intramuscularly injected to mice. Henks solution was used as a solvent. […] Moscow (1992) 13 pp.]. […]

NK-cells = experiment: Activity of NK-cells after swimming stress (H^3-uridine release from YAC-1); assay type: in vivo, Balb male mice; conditions: 50 µg/kg orally four times
Procedure: Experiments were carried out on inbred Balb male mice with initial body mass 16-18 g. Each group included 12 animals. The model of swimming in warm water for 20 minutes was used to develop emotional-locomotory stress in animals. Stress development was estimated by the activity of natural killer lymphocytes (NK cells) and by functioning of the interferon system [Sukhikh T.G., Nossik N.N., Parshina O.V., Van'ko L.V., Meerson F.Z., Yershov F.I. Relationship between the natural cellular cytotoxicity system and the interferon system in immobilization stress. Bulletin of Experimental Biology (1984), ? , pp.593-595].
Activity of NK-cells was determined in the test of H^3-uridine release from the labelled target cells YAC-1 (mouse cellular lymphoma maintained by passages in vitro in suspension in the RPMI-1640 medium with 10% fetal serum). H^3-uridine (3-5 µC/cells/ml) was introduced into cellular suspension at concentration 1 miilion cells/ml on the 60th minute while shaking with 15 minute inerval and subsequent washing with the medium.
Splenocytes of mice which were obtained using the published method [Nossik N.N., Bopegamage S.A., Yershov F.I. Properties of interferons produced by different cell populations. Acta microbiologica Hungarica (1988), Vol. 35, Iss. 4, pp. 397-403] served as the source of NK-cells.
Animals were divided into four groups, each including 36 mice. • Group 1 - intact animals not subjected to stress and given normal saline (NS). • Group 2 - animals which ere subjected to stress effect and given NS. • Group 3 - animals which were subjected to stress effect and administered compound III. • Group 4 - animals which were subjected to stress effect and administered compound XLIV.
Activity of NK-cells and interferon state were dynamically determined in 4 hours following stress, in 24 hours and then by days 5, 7 and 10.

[3] = 1 µM, control of the series as in the table
[4] = 0.01 mM, control of the series as in the table
[5] = 0.1 mM, control of the series as in the table
[6] = 1 mM, control of the series 7839 ± 171, 1120 ± 163, 4974 ± 283 or 1332 ± 172

O=C(O)CCCC(=O)NCCc1c[nH]cn1 [compound III, N-GLUTARYLHISTAMINE]
Percent of the reaction inhibition (mongrel male mice; 50 µg/kg): 42%
Reaction intensity, mm^2 (mongrel male mice; 50 µg/kg): 51.6 ± 17.1*^2 mm^2
Percent of the reaction inhibition (mongrel male mice; 150 µg/kg): 34.3%
Reaction intensity, mm^2 (mongrel male mice; 150 µg/kg): 53.7 ± 10.1*^1 mm^2
Percent of the reaction inhibition (mongrel male mice; 500 µg/kg): 30.0%
Reaction intensity, mm^2 (mongrel male mice; 500 µg/kg): 57.2 ± 12.6*^1 mm^2
Hexenal sleep duration (minutes) ([1]; CBF1 mice, oral 3 days, 50 µg/kg, control 25.91 ± 1.57): 19.61 ± 2.69** minutes
Hexenal sleep duration (minutes) ([1]; CBF1 mice, oral 3 days, 500 µg/kg, control 25.91 ± 1.57): 22.02 ± 1.45 * minutes
relative effect: I+/I- (hydroxyl radical; 1 µM): 0.98
Chemiluminiscence intensity (mV) + σn-1 (hydroxyl radical; [3]): 1100 ± 84 mV
relative effect: I+/I- (hydroxyl radical; 0.01 mM): 0.87
Chemiluminiscence intensity (mV) + σn-1 (hydroxyl radical; [4]): 972 ± 79 mV
relative effect: I+/I- (hydroxyl radical; 0.1 mM): 0.64
Chemiluminiscence intensity (mV) + σn-1 (hydroxyl radical; [5]): 719 ± 71 mV
relative effect: I+/I- (hydroxyl radical; 1 mM): 0.15
Chemiluminiscence intensity (mV) + σn-1 (hydroxyl radical; [6]): 164 ± 14 mV
Mean number of metastases ([2]; 50 µg/kg): 38.5 ±6.3**^1
Mean number of metastases ([2]; 500 µg/kg): 30.1 ± 2.7**^1
Metastasizing inhibition percent ([2]; 50 µg/kg): 26.0%
Metastasizing inhibition percent ([2]; 500 µg/kg): 42.0%
activity of NK-cells (NK-cells; 0.16 days after stress): 68.5 ± 0.99*^1,2
activity of NK-cells (NK-cells; 1 day after stress): 69.3 ± 1.81***^2
activity of NK-cells (NK-cells; 5 days after stress): 79 ± 1.46
activity of NK-cells (NK-cells; 7 days after stress): 69.3 ± 4.85
activity of NK-cells (NK-cells; 10 days after stress): 77 ± 1.98

γ-L-glutamylhistamine [compound XLIV]
Percent of the reaction inhibition (mongrel male mice; 50 µg/kg): 50%
Reaction intensity, mm^2 (mongrel male mice; 50 µg/kg): 44.6 ± 11.6 mm^2
Hexenal sleep duration ([1]; BALB/c*h75 mice, oral 3 days, 50 µg/kg, control 29.16 ± 5.68): 26.50 ± 3.49 min
Hexenal sleep duration (minutes) ([1]; BALB/c*h75 mice, oral 3 days, 500 µg/kg, control 29.16 ± 5.68): 16.72 ± 1.27*** minutes
Hexenal sleep duration (minutes) ([1]; BDF1 mice, oral 3 days, 500 µg/kg, control 23.78 ± 0.78): 20.33 ± 0.59* minutes
Hexenal sleep duration (minutes) ([1]; mouse, in vivo, po): 17.98 ± 1.66* minutes and 16.13 ± 1.86** minutes
relative effect: I+/I- (hydroxyl radical; 1 µM): 1.0
Chemiluminiscence intensity (mV) + σn-1 (hydroxyl radical; [3]): 7747 ± 259 mV
relative effect: I+/I- (hydroxyl radical; 0.01 mM): 0.83
Chemiluminiscence intensity (mV) + σn-1 (hydroxyl radical; [4]): 6444 ± 267 mV
relative effect: I+/I- (hydroxyl radical; 0.1 mM): 0.59
Chemiluminiscence intensity (mV) + σn-1 (hydroxyl radical; [5]): 4625 ± 393 mV
relative effect: I+/I- (hydroxyl radical; 1 mM): 0.28 (*)
Chemiluminiscence intensity (mV) + σn-1 (hydroxyl radical; [6]): 2197 ± 311 mV
Mean number of metastases ([2]; 50 µg/kg): 42.4 ± 4.5
Mean number of metastases ([2]; 500 µg/kg): 31.9 ± 3.8*^2
Metastasizing inhibition percent ([2]; 50 µg/kg): 10.0%
Metastasizing inhibition percent ([2]; 500 µg/kg): 32.0%
activity of NK-cells (NK-cells; 0.16 days after stress): 69.5 ± 1.32**^2
activity of NK-cells (NK-cells; 1 day after stress): 61.5 ± 2.64*^1,2
activity of NK-cells (NK-cells; 5 days after stress): 71 ± 0.82
activity of NK-cells (NK-cells; 7 days after stress): 67.7 ± 3.95
activity of NK-cells (NK-cells; 10 days after stress): 77.5 ± 1.65
